Data reported in US12648571B2, “Compositions including antimicrobial polymer-peptide conjugates and uses thereof” (University of Puerto Rico, priority 2020, dated 2026).
No end group written: not given here.

What was measured:
[1] = Dynamic Light Scattering (DLS) of peptides in solution; format: physicochemical; conditions: 1.0 mg/mL in DMSO/np water 20% v/v; for Polydispersity Index (PDI): individual peak method
Protocol: To determine the stability of the peptide in solution, DLS was conducted for both peptides (MH5C and MH5C-Cys).
AMPs were dissolved in DMSO and nanopure water (DMSO/np water mixture; 20% v/v) with the final concentration at 1.0 mg/mL. First the samples were ultra-centrifuged (29,100 rpm, 1 hour at 20° C.) and later the size average of these biomolecules was studied in solution using a Malvern Zetasizer Nano instrument (4 mW 632.8 nm laser). The individual peak method was used to determine the Polydispersity Index (PdI).

[2] = Zeta potential of peptides; format: physicochemical; conditions: sample pH 4.5 (MH5C), 5.9 (MH5C-Cys)
Protocol: Likewise, zeta potential was conducted in order to determine the overall charge of the modified and unmodified peptide. The zeta potential is highly dependent on the pH as it directly affects the overall charge of the colloidal species. Therefore, it was of interest to know the isoelectric point of the peptides. Using ExPASy ProtParam tool (https://web.expasy.org/protparam/), the theoretical isoelectric points of MH5C and MH5C-Cys, were determined at 3.42 in both cases. In this study the pH of each sample, MH5C was 4.5 and 5.9 for the MH5C-Cys. This is an important condition for the stability of the formulation, as no precipitation will occur under the conditions of the experiment.^36 MH5C had positive zeta potential values (46.6±0.9) compared to the MH5C-Cys (−94±4).

[3] = Circular Dichroism (CD) spectroscopy, secondary structure (K2D3); format: physicochemical; conditions: 90 μM, TFE/np water 50% v/v, 20° C.
Protocol: Circular Dichroism spectra were recorded on a Jasco J-1500 CD Spectrometer (Jasco, Inc., Easton, MD). Both peptides (MH5C, MH5C-Cys) were dissolved according to the protocol published by Dennison et al. (2015) with 2,2,2-Trifluoroethanol and np water (TFE/np water mixture; 50% v/v) as co-solvent for this peptide.^26 The final concentration was set to 90 μM and the samples were ultra-centrifuged (29,100 rpm) for 1 hour at 20° C. Subsequently, 400 μL of the supernatant of each peptide was added to a rectangular quartz cell with 1 mm path length to evaluate secondary structures. The wavelength ranged from 250-190 nm and scanning speed was 50 nm/min at 20° C. The data obtained were triplicated and then averaged for each sample. In addition, the thermodynamics and unfolding of peptides was studied with this equipment. This technique was used to observe the secondary structure at wavelength complete spectra as a function of temperature.^27 The temperature range from 20° C. to 90° C. was used.
For the secondary structure estimation, the K2D3 method was utilized as described elsewhere.^40 After obtaining the data, a predictive method that utilizes the information from the database Protein Data Bank (PDB) was employed. With this information, a theoretical prediction of CD, known as DichroCalc was obtained.^41 Then, the method K2D3 was utilized, which can predict secondary structures of peptides and proteins in recorded wavelengths between 200 nm to 240 nm in a non-redundant form. The results of these calculations are the predicted percentages for alpha-helix and beta-strand content.^40 The following equation was employed for this prediction:^42

[4] = tested on: P. aeruginosa (ATCC 27853); format: cell-based, Pseudomonas aeruginosa; conditions: for Minimum Inhibition Concentration (MIC): 24 hours, 1.0×10^8 CFU/mL; for kind of antibacterial effect (growth curves): peptides: after 12 hours of growth; for bacterial growth (growth curves): up to 24 hours, 37° C.
Source text: (§1) To determine the antimicrobial activity of the peptides against the pathogenic bacteria P. aeruginosa (ATCC 27853)22 and E. coli (ATCC 25922)23, the following materials were used: Costar 96-well plates Flat Bottom (Sterile Low Evaporation Lid, Corning, USA.), Calgary Biofilm Device (Innovotech Inc.), Glycerol 100% purity. The nutrient agar and broth used were BBL TSA II Trypticase Soy Agar (TSA) and BBL Trypticase Soy Broth (TSB) and were purchased from Becton, Dickinson and Company (BD).
(§2) For these assays, bacteria of interest were thawed, and serial cultured to reach optimal metabolic activity after being defrosted. Optical Density (O.D.) measured with a Genesys 10S UV-VIS Spectrophotometer (O.D.600 nm) was utilized as a measure of bacterial concentration, 1.0×10^8 CFU/mL, as standardized and approved by the Clinical and Laboratory Standards Institute (CLSI).^28 The final concentration of the solvent (vehicle control) was DMSO 10%.
(§3) To create growth curves of the bacteria with and without peptides and to determine the lowest concentration in which these antimicrobial peptides present inhibition of bacterial growth, Minimum Inhibition Concentration (MIC) testing was carried out. After thawing and incubating at 37° C. for 24 hours, and after achieving target O.D., the bacteria were placed on the 96-well plate with lid together with the peptides in various concentrations. Finally, the 96-well plate was taken to the Synergy H1TM Hybrid Multi-Mode Microplate Reader to observe and study the antibacterial effect of the peptides at 37° C. during different time points (0.5 h, 5 h, 12 h, 18 h and 24 h). This process that was used in the same in the evaluation of growth using the MH5C-Cys.

[5] = tested on: E. coli (ATCC 25922); format: cell-based, Escherichia coli; conditions: for Minimum Inhibition Concentration (MIC): 24 hours, 1.0×10^8 CFU/mL; for kind of antibacterial effect (growth curves): peptides: after 12 hours of growth; for bacterial growth (growth curves): up to 24 hours, 37° C.
Source text: as §1, §2, §3

[6] = tested on: P. aeruginosa biofilm; assay: MBIC assay (Calgary Biofilm Device); format: cell-based, Pseudomonas aeruginosa; conditions: 90 μM and 300 μM
Protocol: (§4) MBIC (Minimum Biofilm Inhibitory Concentration) was determined by the adherence assay using the Calgary Biofilm Device (Innovotech Inc.). In this assay, the bacteria and compounds (MH5C-Cys and both PEG conjugates) were placed together in the assay plate for 72 h to allow growth. Afterwards, CFU (Colony Forming Unit) and optical density measurements for each well were recorded at 650 nm and clear wells and growth inhibition curves were taken as evidence of biofilm inhibition.

[7] = tested on: E. coli biofilm; assay: MBIC assay (Calgary Biofilm Device); format: cell-based, Escherichia coli; conditions: 90 μM and 300 μM
Protocol: as §4

[8] = tested on: P. aeruginosa biofilm; format: cell-based, Pseudomonas aeruginosa; conditions: for Minimum Biofilm Eradication Concentration (MBEC): 24 h challenge
Protocol: (§5) The assay was conducted according to the MBEC protocol as supplied by the manufacturer. Inoculum of each bacterium was prepared in TSB (Tryptic Soy Broth) to a final density of 1.0×10^6. In each well of the 96 well plate, 150 of the inoculated media was transferred. Assay plates were placed in an incubator for 72 h to allow growth and comparison of biofilms was performed for each bacteria strain. After 72 h, the PEG lid of the MBEC assay was transferred to a ‘challenge’ plate. Essentially, serial dilutions of each conjugated (4 kDa and 7 kDa), antimicrobial peptide, and PEG polymers were prepared in TSB to a final volume in the well plates of 200 μL (control and conjugates at 90 μM, 300 μM, and 500 μM). After exposure of the biofilm to the antimicrobial challenge for 24 h, the PEG lid was removed from the challenge plate, and the optical density measurements for each plate were recorded at 650 nm. Clear wells were taken as evidence of biofilm eradication, and MBEC values were assigned as the lowest concentration at which no growth was observed after 24 h of incubation.^31-32

[9] = tested on: E. coli biofilm; format: cell-based, Escherichia coli; conditions: for Minimum Biofilm Eradication Concentration (MBEC): 24 h challenge
Protocol: as §5

Row | Substance | average apparent hydrodynamic diameter [1] [nm·days] | Polydispersity Index (PDI) [1] | zeta potential [2] | α helix structure [3] [%] | β strand structure [3] [%] | Minimum Inhibition Concentration (MIC) [4] [µM] | kind of antibacterial effect (growth curves) [4] | bacterial growth (growth curves) [4] | Minimum Inhibition Concentration (MIC) [5] [µM] | kind of antibacterial effect (growth curves) [5] | bacterial growth (growth curves) [5] | inhibition of biofilm formation (MBIC assay, CFU) [6] | inhibition of biofilm formation (MBIC assay, CFU) [7] | time during which bacterial growth was not allowed (MBEC assay) [8] [h] | Minimum Biofilm Eradication Concentration (MBEC) [8] [µM] | time during which bacterial growth was not allowed (MBEC assay) [9] [h] | Minimum Biofilm Eradication Concentration (MBEC) [9] [µM] | kind of effect in MBEC assay ([8]; 90 μM, 180 μM and 300 μM, 24 h) | kind of effect in MBEC assay ([9]; 90 μM and 300 μM, 24 h)
1 | ILGPVLGLVSDTLDDVLGIL-OH [MH5C] | 0.72 ± 0.11 | 0.03 | 46.6±0.9 | 95.22 | 0.02 | 90 | bacteriostatic effect | did not allow bacterial growth | 90 | bacteriostatic effect | did not allow bacterial growth | – | – | – | – | – | – | – | –
2 | ILGPVLGLVSDTLDDVLGILC-OH [MH5C-Cys] | 0.52 ± 0.44 | 0.01 | −94±4 | 95.36 | 0.02 | 90 | bacteriostatic effect | did not allow bacterial growth | 90 | bacteriostatic effect | did not allow bacterial growth | does not possess a significant inhibition | does not possess a significant inhibition | 8 to 10 | 500 | 8 to 10 | 500 | – | –
3 | KRWRIRVRVIRKC [Tet-20, KRWRIRVRVIRKC] | – | – | – | – | – | 40 | – | – | 15 | – | – | – | – | – | 300 | – | 300 | bactericidal effect | bactericidal effect
